# Earlier results as cited in patent publication US9320746B2, “Method for treating intestinal fibrosis” (Sigmoid Pharma Limited, priority 2013, dated 2016).
# Settings: extensive first-pass elimination; compared with other corticosteroid formulations
smiles,measurement,value
"CCCC1O[C@@H]2C[C@H]3[C@@H]4CCC5=CC(=O)C=C[C@]5(C)[C@H]4[C@@H](O)C[C@]3(C)[C@]2(C(=O)CO)O1 (stereo partly drawn) [budesonide, 16,17-butylidendioxy-11β,21-dihydroxy-1,4-pregnadien-3,20-dione]",systemic bioavailability,10-15%
